Experimental findings from ChEMBL document CHEMBL5143680, “Cytotoxic Bromine- and Iodine-Containing Cytochalasins Produced by the Mangrove Endophytic Fungus Phomopsis sp. QYM-13 Using the OSMAC Approach” (J Nat Prod, 2022) are described below.

Bounds are passed on as bounds.

Series [1] concerns MDA-MB-435. Briefly: Cytotoxicity against human MDA-MB-435 cells measured after 72 hrs by MTT assay. Type of series: functional, cell-based. As to conditions: MDA-MB-435, 72 h. A general note: Formazan colour is commonly taken as a measure of viable cells.
The test system of series [2] is HepG2. Briefly: Cytotoxicity against human HepG2 cells measured after 72 hrs by MTT assay. Type of series: functional, cell-based. The following applies: HepG2, 72 h.
The subject of series [3] is A549. Briefly: Cytotoxicity against human A549 cells measured after 72 hrs by MTT assay. It counts as functional, cell-based. As to conditions: A549, 72 h.
Series [4] deals with MDA-MB-231. Briefly: Cytotoxicity against human MDA-MB-231 cells measured after 72 hrs by MTT assay. It counts as functional, cell-based. The following applies: MDA-MB-231, 72 h.
Series [5] deals with SNB-19. Briefly: Cytotoxicity against human SNB-19 cells measured after 72 hrs by MTT assay. It counts as functional, cell-based. The following applies: SNB-19, 72 h.
The nature of series [6]: Cytotoxicity against African green monkey Vero cells measured after 72 hrs by MTT assay. Type of series: toxicity, cell-based. The following applies: African green monkey (Chlorocebus sabaeus).

On to `C=C1[C@@H](C)[C@H]2[C@H](Cc3ccccc3)NC(=O)[C@@]23[C@@H]([C@@H]2[C@H](/C=C(/C)C[C@@H](C)C[C@H]2Br)[C@H]3OC(C)=O)[C@@H]1O`, for which the IC50 in series [1] is 7.4 µM; in series [2] it was over 50 µM; in series [3], over 50 µM; in series [4], 44 µM; in series [5] it was over 50 µM. This molecule displayed an IC50 at 72 h in series [6] of 18 µM.

In the case of `C=C1[C@@H](C)[C@H]2[C@H](Cc3ccccc3)NC(=O)[C@@]23[C@H]2[C@@H]4[C@H](C(C)=C[C@@H](C)C[C@H]4O[C@H]12)[C@H]3OC(C)=O`, the IC50 is 36 µM in series [1]; over 50 µM in series [2]; over 50 µM in series [3]; over 50 µM in series [4]; over 50 µM in series [5]. In series [6], this molecule had an IC50 at 72 h of 34 µM.

`CC(=O)O[C@@H]1/C=C/[C@](C)(O)C[C@@H](C)C/C=C/[C@H]2C=C(C)[C@@H](C)[C@H]3[C@H](Cc4ccccc4)NC(=O)[C@]321`: the IC50 in series [1] is 34 µM; in series [2] it was over 50 µM; in series [3], over 50 µM; in series [4] it was over 50 µM; in series [5], over 50 µM. Moreover, the IC50 at 72 h in series [6] is over 50 µM.

For `CC1=C[C@@H]2/C=C/C[C@H](C)C[C@@](C)(O)[C@@H]3O[C@H]3C(=O)[C@]23C(=O)N[C@@H](Cc2ccccc2)[C@@H]3[C@@H]1C`, the half-inhibitory concentration (IC50) is 32 µM in series [1]; over 50 µM in series [2]; 28 µM in series [3]; 11 µM in series [4]; over 50 µM in series [5]. The molecule also displayed a half-inhibitory concentration (IC50) at 72 h in series [6] of 29 µM.

On to `CC1=C[C@@H]2/C=C/C[C@H](C)C[C@H](C)[C@@H]3O[C@H]3C(=O)[C@]23C(=O)N[C@@H](Cc2ccccc2)[C@@H]3[C@@H]1C`, for which the IC50 in series [1] is 44 µM; in series [2] it was over 50 µM; in series [3], over 50 µM; in series [4], over 50 µM; in series [5], over 50 µM. Further, in series [6], the IC50 at 72 h was over 50 µM.

In the case of `CC(=O)O[C@@H]1/C=C/[C@](C)(O)C[C@@H](C)C/C=C/[C@H]2C=C(C(=O)O)[C@@H](C)[C@H]3[C@H](Cc4ccccc4)NC(=O)[C@]321`, the IC50 in series [1], in series [2], in series [3], in series [4] and in series [5] was over 50 µM each time. Also, in series [6], the IC50 at 72 h is over 50 µM.

As to `C[C@H]1C/C=C/[C@H]2C=C(CO)[C@@H](C)[C@H]3[C@H](Cc4ccccc4)NC(=O)[C@]32[C@H](O)/C=C/[C@](C)(O)C1`, the IC50 in series [1] is 25 µM; in series [2] it was over 50 µM; in series [3], over 50 µM; in series [4] it was over 50 µM; in series [5], over 50 µM. The molecule also came in with an IC50 at 72 h in series [6] of over 50 µM.

For the molecule `C=C1[C@@H](C)[C@H]2[C@H](Cc3ccccc3)NC(=O)[C@@]23[C@H]2[C@@H]4[C@H](C(C)=C[C@@H](C)C[C@H]4O[C@H]12)[C@@H](I)[C@H]3O`, the IC50 in series [1], in series [2], in series [3], in series [4] and in series [5] was over 50 µM in each case. Moreover, half-maximal inhibition in series [6] (IC50 at 72 h) required 39 µM.

In the case of `C=C1[C@@H](C)[C@H]2[C@H](Cc3ccccc3)NC(=O)[C@]23[C@H](OC(C)=O)/C=C/C(C)=C\[C@@H](C)C/C=C/[C@H]3[C@@H]1O`, the IC50 in series [1] was 12 µM; in series [2], over 50 µM; in series [3], over 50 µM; in series [4], 45 µM; in series [5], 42 µM. Further, in series [6], the IC50 at 72 h is 25 µM.

For `C=C1[C@@H](C)[C@H]2[C@H](Cc3ccccc3)NC(=O)[C@@]23[C@H]2[C@@H]4[C@H](C(C)=C[C@@H](C)C[C@H]4O[C@H]12)[C@H]3O`, the IC50 in series [1], in series [2], in series [3], in series [4] and in series [5] was over 50 µM each time. The molecule further gave an IC50 at 72 h in series [6] of over 50 µM.

On to `C=C1[C@@H](C)[C@H]2[C@H](Cc3ccccc3)NC(=O)[C@]23[C@H](OC(C)=O)[C@@H]2O[C@H]2[C@](C)(O)C[C@@H](C)C/C=C/[C@H]3[C@@H]1O`, for which the IC50 in series [1] is 42 µM; in series [2] it was over 50 µM; in series [3] it was over 50 µM; in series [4] it was over 50 µM; in series [5], over 50 µM. In series [6], this molecule returned an IC50 at 72 h of over 50 µM.

Take `C=C1[C@@H](C)[C@H]2[C@H](Cc3ccccc3)NC(=O)[C@@]23[C@@H]([C@@H]2[C@H](/C=C(/C)C[C@@H](C)C[C@H]2I)[C@H]3OC(C)=O)[C@@H]1O`: the IC50 in series [1] was 47 µM; in series [2], 47 µM; in series [3], 33 µM; in series [4] it was 43 µM; in series [5], over 50 µM. In addition, in series [6], the IC50 at 72 h came out at 29 µM.

As for `C=C1/C=C/[C@@H](OC(C)=O)[C@@]23C(=O)N[C@@H](Cc4ccccc4)[C@@H]2[C@H](C)C(=C)[C@@H](O)[C@@H]3/C=C/C[C@H](C)C1`, the IC50 is 11 µM in series [1]; over 50 µM in series [2]; over 50 µM in series [3]; 35 µM in series [4]; 16 µM in series [5]. The molecule further displayed an IC50 at 72 h in series [6] of 14 µM.

In the case of `CC1=C[C@@H]2/C=C/C[C@H](C)C[C@@](C)(O)/C=C/[C@@H](O)[C@]23C(=O)N[C@@H](Cc2ccccc2)[C@@H]3[C@@H]1C`, the IC50 in series [1] was 38 µM; in series [2] it was over 50 µM; in series [3], 38 µM; in series [4] it was over 50 µM; in series [5] it was over 50 µM. In series [6], the IC50 at 72 h was 44 µM.

As to `C=C1[C@@H](C)[C@H]2[C@H](Cc3ccccc3)NC(=O)[C@]23[C@H](O)/C=C/[C@](C)(O)C[C@@H](C)C/C=C/[C@H]3[C@@H]1O`, the IC50 is 4.9 µM in series [1]; over 50 µM in series [2]; over 50 µM in series [3]; 31 µM in series [4]; 6.8 µM in series [5]. Besides, the IC50 at 72 h in series [6] was over 50 µM.

For `CC(=O)O[C@@H]1/C=C/[C@](C)(O)C[C@@H](C)C/C=C/[C@H]2C=C(CO)[C@@H](C)[C@H]3[C@H](Cc4ccccc4)NC(=O)[C@]321`, the IC50 in series [1] was 8.2 µM; in series [2], over 50 µM; in series [3], 38 µM; in series [4] it was 42 µM; in series [5], 6.9 µM. 22 µM corresponded to half-maximal inhibition in series [6] (IC50 at 72 h).

For the molecule `C=C1[C@@H](C)[C@H]2[C@H](Cc3ccccc3)NC(=O)[C@]23[C@H](OC(C)=O)/C=C/[C@](C)(O)C[C@@H](C)C/C=C/[C@H]3[C@@H]1O`, the IC50 in series [1] is 0.2 µM; in series [2] it was over 50 µM; in series [3], over 50 µM; in series [4] it was 42 µM; in series [5] it was 26 µM. Also, inhibition in series [6] was half-maximal at 40 µM (IC50 at 72 h).

Consider `C=C1[C@@H](C)[C@H]2[C@H](Cc3ccccc3)NC(=O)[C@@]23[C@@H]([C@@H]2[C@H](/C=C(/C)C[C@@H](C)C[C@H]2O)[C@H]3OC(C)=O)[C@@H]1O`, for which the IC50 in series [1] is 45 µM; in series [2], over 50 µM; in series [3] it was over 50 µM; in series [4], over 50 µM; in series [5] it was over 50 µM. The molecule also came in with an IC50 at 72 h in series [6] of over 50 µM.

Usually IC50 stands for the concentration needed to halve the response being measured.
